Molecules are shown by their SMILES. Several values for one entry are separate records, joined by “and”; a condition that tells them apart may be missing. Equal values may be shown once. A value given as a limit tells only on which side of the number the result lay.

Experimental findings from publication PMC10796436, “Peptidyl nitroalkene inhibitors of main protease rationalized by computational and crystallographic investigations as antivirals against SARS-CoV-2” (Communications Chemistry, 2024) are described below.

One series in a line: in vitro. To be noted: human.
Another series has as its target M^pro (Severe acute respiratory syndrome coronavirus 2, UniProt P0DTD1). The experiment in a line: Binding to M^pro by ultracentrifugation (sedimentation method).
Series [1] in a line: Stability in TRIS buffer pH 7.5 by LCMS (warhead hydration). The format is physicochemical. The method, then:
(50 mM, pH 7.5), stored at ca. 30 °C and repeatedly analyzed by LCMS (stability in buffer). […]
Analysis was performed using Mestrenova. LCMS setup: Agilent 1100 series HPLC system coupled to an Agilent 1100 series LC/MSD Trap with electron spray ionization (ESI) , Agilent Poroshell 120 EC-C18, 150x2.10 mm, 4 μm column. A linear gradient was used for elution with a ternary pump using [water/ACN/water + 0.1% formic acid] that changes ratios from 80/10/10 to 0/90/10 over the course of 10 min (0.7 mL/min). Areas of peaks in the chromatogram (detection-λ = 326 nm) were used to calculate the change in concentrations. Retention time and mass spectrum recorded in positive ionization mode were used to assign species.
In preparation of experiments with longer incubation periods (metabolic stability, permeability etc.), first general stability in aqueous systems is to be assessed. For this, a TRIS/HCl buffer system at physiological pH was chosen.
In all measurements, only two relevant “species” of FGA146 are identifiable by mass spectrometry: m/z[M+H2O+H]+ = 504 with tR = 4.8 min and m/z[M+H]+ = 486 with tR = 5.1 min.
For quantification by UV AUC, 326 nm is used as detection wavelength. Wavelengths ≤255 nm are unsuitable since extinction coefficients of free and hydrated warhead seem to vastly differ.
Table 10. […] For exemplary depiction of chromatograms that were used to generate this table, compare Figure SX below. […]
tR = 4.8 min tR = 5.1 min m/z[M+H2O+H]+ = 504 m/z[M+H]+ = 486

In another series the target is T1, bovine trypsin (Bos taurus, UniProt P00760).
T1 construct: purchased Sigma-Aldrich
T1 sequence (P00760 24-246): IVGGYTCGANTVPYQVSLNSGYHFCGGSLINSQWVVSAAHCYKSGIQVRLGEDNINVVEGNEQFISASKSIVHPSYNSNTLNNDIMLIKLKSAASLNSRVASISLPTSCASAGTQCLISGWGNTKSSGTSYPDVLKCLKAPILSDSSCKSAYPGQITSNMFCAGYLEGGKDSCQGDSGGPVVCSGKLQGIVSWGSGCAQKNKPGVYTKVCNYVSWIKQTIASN
In kind it is biochemical. To be noted: 20 μM.

A further series has as its target T2, DNMT2 (Homo sapiens, UniProt O14717).
T2 sequence (O14717 1-391): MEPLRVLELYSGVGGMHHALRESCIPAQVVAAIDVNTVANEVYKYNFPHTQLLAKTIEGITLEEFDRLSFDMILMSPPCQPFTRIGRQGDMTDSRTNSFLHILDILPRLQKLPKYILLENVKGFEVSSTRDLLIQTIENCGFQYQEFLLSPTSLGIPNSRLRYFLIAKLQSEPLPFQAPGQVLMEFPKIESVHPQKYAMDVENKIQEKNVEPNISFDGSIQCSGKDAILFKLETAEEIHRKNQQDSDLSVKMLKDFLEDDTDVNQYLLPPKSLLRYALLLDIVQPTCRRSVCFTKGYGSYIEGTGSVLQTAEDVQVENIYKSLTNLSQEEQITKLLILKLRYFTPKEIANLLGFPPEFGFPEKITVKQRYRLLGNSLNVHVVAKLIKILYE
The experiment in a line: DNMT2 MST-displacement assay. The format is binding. To be noted: 100 μM. How it is done: DNMT2 MST-Displacement Assay. Assay was conducted according to literature 59. The average of quadruple measurements is depicted for two independent measurements each. The positive control was measured without DNMT2 to detect totally unbound FTAD, additionally Sinefungin (SFG), a literature described DNMT2 inhibitor, was used as a second positive control. SFG and FGA146 concentrations in this assay were 100 µM each.
Figure 26. Microscale Thermophoresis displacement experiment against DNMT2.
Other potential off-targets. A search in ChEMBL database for the term “nitroalkene” gave the following papers (excluded 2 synthesis papers using nitroalkenes as reactants) - https://doi.org/10.1021/acsmedchemlett.6b00276: Nitroalkenes against rhodesain and cruzain - https://doi.org/10.1021/jm900326c: Nitroalkene fatty acids against PPARγ - https://doi.org/10.1016/j.ejmech.2012.08.013: Nitroalkene as head group against minor groove binders (anti-infective)
Results one and three are irrelevant due to different organisms as targets. Restult 2 is unlikely to be important, as fatty acid structure deviates from peptidic structure of inhibitors under investigation […]

Series [2] can be described thus: logP determination by HPLC. To be noted: HPLC retention time. In kind it is physicochemical.
Procedure: experimental logP was determined. After unsuccessful evaluation by a classical extraction method
for determination, an HPLC-based estimation of hydrophobicity by retention time was utilized.
Following a publication60, a set of 9 compounds was chosen for preparing a calibration curve of
hydrophobicity indices and logPs.
λ = 254 nm, n = 1). Calibration of hydrophobicity was performed with a mixture of thiourea (Merck
Fisher Scientific, A12727.AP), Indole (Sigma Aldrich, W259306), Butyrophenone (Merck
1 mg/mL each in 50:50 [50 mM NH4OAc buffer pH 7.2/ACN]60 (n = 1). Analysis was performed
was used for elution with a binary pump using [50 mM NH4OAc buffer pH 7.2/ACN] (1 mL/min):
For calculation of unknown logP with this method, the following equation is used:
Signals at 6 and >14 min are due to impurities from
column that are detected in all measurements and are therefore not taken into account.

In the series “in vitro”, `CC(C)C[C@H](NC(=O)OCc1ccccc1)C(=O)N[C@H](/C=C/[N+](=O)[O-])C[C@@H]1CCNC1=O` [FGA147] yielded a CC50 above 100 µM.

The term Kd denotes the equilibrium constant for the complex coming apart. In the case of `COc1cccc2[nH]c(C(=O)N[C@@H](CC(C)C)C(=O)N[C@H](/C=C/[N+](=O)[O-])C[C@@H]3CCNC3=O)cc12` [FGA146], the “Fraction bound, Absorption” value on M^pro (ligand concentration 0.1) turned out to be 0.00706; at M^pro (ligand concentration 0.5) it was 0.0199; at M^pro (ligand concentration 1), 0.07275; at M^pro (ligand concentration 5), 0.3362; on M^pro (ligand concentration 10), 0.6468; at M^pro (ligand concentration 25) it was 0.9146. For the same compound, the “Fraction bound, Absorption” value at M^pro (ligand concentration 50) is recorded as 0.9678; at M^pro (ligand concentration 100) it was 1.004. The “Fraction bound, Fluorescence” value on M^pro (ligand concentration 0.1) amounted to 0.00606; on M^pro (ligand concentration 0.5) it was 0.0299; on M^pro (ligand concentration 1), 0.06275; at M^pro (ligand concentration 5), 0.3162; at M^pro (ligand concentration 10), 0.623; at M^pro (ligand concentration 25), 0.8218. Moreover, the “Fraction bound, Fluorescence” value at M^pro (ligand concentration 50) is 0.9995; at M^pro (ligand concentration 100), 0.9916. The Kd at M^pro (ultracentrifugation, 25 °C) stood at 7.28 ± 0.58 µM. For the same compound, the “equilibrium hydrated to free warhead” value in series [1] (TRIS buffer pH 7.5, ca. 30 °C) is 85/15. In series [1] (TRIS buffer pH 7.5, ca. 30 °C), the “time to 50% conversion to hydrated warhead” value is 1 h. Further, the “time until hydration equilibrium is reached” value in series [1] (TRIS buffer pH 7.5, ca. 30 °C) is recorded as 4 h. For the same compound, the “AUCpeak1/AUCTotal (hydrated, m/z 504)” value is 10% in series [1] (t 0 h); 20% in series [1] (t 0.25 h); 34% in series [1] (t 0.5 h); 47% and 53% in series [1] (t 1 h); 78% in series [1] (t 3 h); 83% in series [1] (t 4 h). For the same compound, the “AUCpeak1/AUCTotal (hydrated, m/z 504)” value was 85% in series [1] (t 5 h), 85% in series [1] (t 7 h), 83% in series [1] (t 30 h) and 83% in series [1] (t 31 h). For the same compound, the “AUCpeak2/AUCTotal (intact, m/z 486)” value was 90% in series [1] (t 0 h); 80% in series [1] (t 0.25 h); 66% in series [1] (t 0.5 h); 47% and 53% in series [1] (t 1 h); 22% in series [1] (t 3 h); 17% in series [1] (t 4 h). Further, the “AUCpeak2/AUCTotal (intact, m/z 486)” value in series [1] (t 5 h) came to 15%; in series [1] (t 7 h), 14%; in series [1] (t 30 h), 14%; in series [1] (t 31 h) it was 14%. Besides, in series [1] (time to LCMS (<10 min)), the “conversion to hydrated warhead” value turned out to be 10%. Also, the “relative activity compared to the DMSO control” value at bovine trypsin turned out to be 112.5±16.9%. Also, the “displacement of FTAD from DNMT2” value at DNMT2 is reported as “non-binder”. This compound gave a logPexp in series [2] of 2.0.
